As usually defined, the IC50 is the point on the concentration scale where inhibition reaches its midpoint. A word on the Ki: it is a dissociation constant, usually derived from enzyme kinetics or from competition with a known ligand.

These results are taken from ChEMBL document CHEMBL1909046, “DrugMatrix in vitro pharmacology data”.

Each structure is given as a SMILES string.

Data set [1] has as its target T1, Alpha-2A adrenergic receptor (Homo sapiens, UniProt P08913). Further: in other assays of this panel Not Active means under 50% inhibition at 10 µM.
T1 sequence (P08913 whole entry): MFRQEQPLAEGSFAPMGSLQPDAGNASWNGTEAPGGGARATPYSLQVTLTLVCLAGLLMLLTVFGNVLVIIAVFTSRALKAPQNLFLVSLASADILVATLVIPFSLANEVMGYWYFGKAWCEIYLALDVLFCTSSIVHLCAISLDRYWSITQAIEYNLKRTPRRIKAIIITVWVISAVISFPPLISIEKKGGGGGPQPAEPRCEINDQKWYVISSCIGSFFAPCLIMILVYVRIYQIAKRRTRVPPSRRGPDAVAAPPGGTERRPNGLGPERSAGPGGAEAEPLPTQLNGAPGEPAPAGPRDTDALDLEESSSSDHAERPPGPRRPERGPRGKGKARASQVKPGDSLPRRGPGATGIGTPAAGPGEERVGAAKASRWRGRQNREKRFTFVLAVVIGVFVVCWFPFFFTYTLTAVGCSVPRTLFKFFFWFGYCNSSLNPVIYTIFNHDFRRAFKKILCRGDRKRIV
The format is cell membranes, Sf9, Membrane.

Data set [2] addresses T2, Alpha-2C adrenergic receptor (Homo sapiens, UniProt P18825).
T2 sequence (P18825 whole entry): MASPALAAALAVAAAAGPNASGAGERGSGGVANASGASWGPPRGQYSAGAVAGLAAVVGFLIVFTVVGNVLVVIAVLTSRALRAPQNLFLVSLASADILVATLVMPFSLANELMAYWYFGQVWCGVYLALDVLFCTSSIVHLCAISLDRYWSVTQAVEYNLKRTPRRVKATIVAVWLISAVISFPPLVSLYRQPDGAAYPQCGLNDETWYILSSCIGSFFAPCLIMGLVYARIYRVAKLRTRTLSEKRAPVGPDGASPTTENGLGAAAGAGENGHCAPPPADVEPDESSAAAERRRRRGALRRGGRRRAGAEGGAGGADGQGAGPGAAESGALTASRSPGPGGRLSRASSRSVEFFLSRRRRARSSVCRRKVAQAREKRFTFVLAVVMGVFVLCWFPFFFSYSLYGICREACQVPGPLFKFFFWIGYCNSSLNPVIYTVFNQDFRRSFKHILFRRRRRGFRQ
The experiment in a line: DRUGMATRIX: Adrenergic Alpha-2C radioligand binding (ligand: [3H] MK-912). The format is cell membranes, Sf9, Membrane.

Data set [3] addresses Beta-1 adrenergic receptor (Homo sapiens, UniProt P08588). The data set can be described thus: DRUGMATRIX: Adrenergic beta1 radioligand binding (ligand: [125I] Cyanopindolol). The format is cell membranes, CHO-K1, Membrane. To be noted: Not Active = under 50% inhibition at 10 µM.
Data set [4] concerns the target T3, Type-2 angiotensin II receptor (Homo sapiens, UniProt P50052). Further: in other assays of this panel Not Active means under 50% inhibition at 10 µM.
T3 sequence (P50052 whole entry): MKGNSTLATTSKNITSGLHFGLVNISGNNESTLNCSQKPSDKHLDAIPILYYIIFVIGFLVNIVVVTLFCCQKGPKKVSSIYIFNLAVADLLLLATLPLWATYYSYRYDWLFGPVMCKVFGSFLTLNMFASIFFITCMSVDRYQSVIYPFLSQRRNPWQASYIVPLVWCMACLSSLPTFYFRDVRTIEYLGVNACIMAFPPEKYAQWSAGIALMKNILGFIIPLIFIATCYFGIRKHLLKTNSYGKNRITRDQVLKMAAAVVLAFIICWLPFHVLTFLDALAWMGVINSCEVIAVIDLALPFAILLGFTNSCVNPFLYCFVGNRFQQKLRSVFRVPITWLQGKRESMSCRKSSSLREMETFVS
In kind it is cell-based. To be noted: cho-k1.

The nature of data set [5]: DRUGMATRIX: Calcium Channel Type L, Phenylalkylamine radioligand binding (ligand: [3H] (-)-Desmethoxyverapamil (D-888)). The format is cell membranes, Rattus norvegicus, Wistar, Brain, Membrane. To be noted: Not Active = under 50% inhibition at 10 µM.
Data set [6] in a line: DRUGMATRIX: GABAA, Flunitrazepam, Central radioligand binding (ligand: [3H] Flunitrazepam). The format is cell membranes, Rattus norvegicus, Wistar, Brain, Membrane. To be noted: Not Active = under 50% inhibition at 10 µM.
The target of another data set is Insulin receptor (Rattus norvegicus, UniProt P15127). In kind it is cell membranes, Wistar, Liver, Membrane. Further: in other assays of this panel Not Active means under 50% inhibition at 10 µM.
Data set [7] has as its target T4, Neuropeptide Y receptor type 2 (Homo sapiens, UniProt P49146). Further: in other assays of this panel Not Active means under 50% inhibition at 10 µM.
T4 sequence (P49146 whole entry): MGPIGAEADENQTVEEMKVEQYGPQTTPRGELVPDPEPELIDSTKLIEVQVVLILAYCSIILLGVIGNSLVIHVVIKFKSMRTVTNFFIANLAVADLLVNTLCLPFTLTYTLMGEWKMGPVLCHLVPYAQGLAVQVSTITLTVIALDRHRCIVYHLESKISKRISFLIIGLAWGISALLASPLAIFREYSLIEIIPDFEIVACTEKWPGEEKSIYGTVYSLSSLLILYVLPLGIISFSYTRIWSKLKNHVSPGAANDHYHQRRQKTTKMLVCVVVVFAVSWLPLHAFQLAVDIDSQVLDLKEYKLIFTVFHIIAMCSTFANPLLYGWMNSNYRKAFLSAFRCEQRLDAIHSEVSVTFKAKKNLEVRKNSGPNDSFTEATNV
In kind it is cell membranes, Membrane. To be noted: kan-ts.

Data set [8] deals with Receptor tyrosine-protein kinase erbB-2 (Homo sapiens, UniProt P04626). The data set can be described thus: biochemical. The format is cell-based, Insect cells. To be noted: insect cells.
The target of data set [9] is 5-hydroxytryptamine receptor 1B (Rattus norvegicus, UniProt P28564). The format is cell membranes, Wistar, Cerebral cortex, Membrane. Further: in other assays of this panel Not Active means under 50% inhibition at 10 µM.
For another data set, the target named is T5, Adenosine receptor A1 (Homo sapiens, UniProt P30542).
T5 sequence (P30542 whole entry): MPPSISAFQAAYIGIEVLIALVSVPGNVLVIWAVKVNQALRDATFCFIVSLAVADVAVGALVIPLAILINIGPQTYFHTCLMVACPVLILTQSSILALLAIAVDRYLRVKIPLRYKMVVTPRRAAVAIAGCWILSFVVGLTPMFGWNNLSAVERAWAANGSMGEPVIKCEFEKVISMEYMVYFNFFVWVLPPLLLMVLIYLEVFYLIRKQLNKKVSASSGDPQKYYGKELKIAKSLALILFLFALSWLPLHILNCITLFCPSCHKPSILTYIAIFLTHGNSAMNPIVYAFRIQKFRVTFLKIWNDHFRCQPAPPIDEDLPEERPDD
In kind it is cell membranes, CHO, Membrane. To be noted: cho.

In data set [10] the target is Voltage-gated inwardly rectifying potassium channel KCNH2 (Homo sapiens, UniProt Q12809). To be noted: hek293. Further: in other assays of this panel Not Active means under 50% inhibition at 10 µM.
Sequence of Voltage-gated inwardly rectifying potassium channel KCNH2 (Q12809 whole entry): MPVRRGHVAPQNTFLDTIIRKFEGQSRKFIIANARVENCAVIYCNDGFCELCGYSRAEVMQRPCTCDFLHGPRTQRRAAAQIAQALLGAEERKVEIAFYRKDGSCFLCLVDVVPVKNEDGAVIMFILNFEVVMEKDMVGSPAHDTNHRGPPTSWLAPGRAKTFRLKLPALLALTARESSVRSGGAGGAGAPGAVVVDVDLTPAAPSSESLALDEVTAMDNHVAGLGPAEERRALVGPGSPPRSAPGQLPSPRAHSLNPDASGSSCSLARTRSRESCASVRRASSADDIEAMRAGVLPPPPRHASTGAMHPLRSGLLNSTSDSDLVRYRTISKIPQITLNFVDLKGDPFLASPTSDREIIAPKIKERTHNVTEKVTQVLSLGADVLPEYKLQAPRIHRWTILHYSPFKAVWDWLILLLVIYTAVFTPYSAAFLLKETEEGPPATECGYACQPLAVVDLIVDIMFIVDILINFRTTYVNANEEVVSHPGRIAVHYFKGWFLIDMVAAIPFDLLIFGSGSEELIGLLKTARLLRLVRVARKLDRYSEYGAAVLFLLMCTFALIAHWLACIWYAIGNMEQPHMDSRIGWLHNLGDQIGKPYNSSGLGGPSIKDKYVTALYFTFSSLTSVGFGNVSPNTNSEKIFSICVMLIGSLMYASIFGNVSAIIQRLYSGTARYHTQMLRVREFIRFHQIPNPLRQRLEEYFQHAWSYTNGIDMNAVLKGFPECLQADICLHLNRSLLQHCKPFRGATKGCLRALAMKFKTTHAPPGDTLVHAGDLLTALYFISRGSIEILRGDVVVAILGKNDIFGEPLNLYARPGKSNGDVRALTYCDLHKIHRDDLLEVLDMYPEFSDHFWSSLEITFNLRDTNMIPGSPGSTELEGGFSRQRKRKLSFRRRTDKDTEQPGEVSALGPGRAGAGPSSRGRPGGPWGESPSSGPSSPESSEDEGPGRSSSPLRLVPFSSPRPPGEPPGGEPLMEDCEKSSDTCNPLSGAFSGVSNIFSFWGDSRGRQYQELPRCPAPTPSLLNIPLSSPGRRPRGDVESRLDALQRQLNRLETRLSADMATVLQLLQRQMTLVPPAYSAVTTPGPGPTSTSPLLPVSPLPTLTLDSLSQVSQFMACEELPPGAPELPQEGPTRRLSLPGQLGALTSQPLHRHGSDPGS

Sequence of Receptor tyrosine-protein kinase erbB-2 (P04626 whole entry): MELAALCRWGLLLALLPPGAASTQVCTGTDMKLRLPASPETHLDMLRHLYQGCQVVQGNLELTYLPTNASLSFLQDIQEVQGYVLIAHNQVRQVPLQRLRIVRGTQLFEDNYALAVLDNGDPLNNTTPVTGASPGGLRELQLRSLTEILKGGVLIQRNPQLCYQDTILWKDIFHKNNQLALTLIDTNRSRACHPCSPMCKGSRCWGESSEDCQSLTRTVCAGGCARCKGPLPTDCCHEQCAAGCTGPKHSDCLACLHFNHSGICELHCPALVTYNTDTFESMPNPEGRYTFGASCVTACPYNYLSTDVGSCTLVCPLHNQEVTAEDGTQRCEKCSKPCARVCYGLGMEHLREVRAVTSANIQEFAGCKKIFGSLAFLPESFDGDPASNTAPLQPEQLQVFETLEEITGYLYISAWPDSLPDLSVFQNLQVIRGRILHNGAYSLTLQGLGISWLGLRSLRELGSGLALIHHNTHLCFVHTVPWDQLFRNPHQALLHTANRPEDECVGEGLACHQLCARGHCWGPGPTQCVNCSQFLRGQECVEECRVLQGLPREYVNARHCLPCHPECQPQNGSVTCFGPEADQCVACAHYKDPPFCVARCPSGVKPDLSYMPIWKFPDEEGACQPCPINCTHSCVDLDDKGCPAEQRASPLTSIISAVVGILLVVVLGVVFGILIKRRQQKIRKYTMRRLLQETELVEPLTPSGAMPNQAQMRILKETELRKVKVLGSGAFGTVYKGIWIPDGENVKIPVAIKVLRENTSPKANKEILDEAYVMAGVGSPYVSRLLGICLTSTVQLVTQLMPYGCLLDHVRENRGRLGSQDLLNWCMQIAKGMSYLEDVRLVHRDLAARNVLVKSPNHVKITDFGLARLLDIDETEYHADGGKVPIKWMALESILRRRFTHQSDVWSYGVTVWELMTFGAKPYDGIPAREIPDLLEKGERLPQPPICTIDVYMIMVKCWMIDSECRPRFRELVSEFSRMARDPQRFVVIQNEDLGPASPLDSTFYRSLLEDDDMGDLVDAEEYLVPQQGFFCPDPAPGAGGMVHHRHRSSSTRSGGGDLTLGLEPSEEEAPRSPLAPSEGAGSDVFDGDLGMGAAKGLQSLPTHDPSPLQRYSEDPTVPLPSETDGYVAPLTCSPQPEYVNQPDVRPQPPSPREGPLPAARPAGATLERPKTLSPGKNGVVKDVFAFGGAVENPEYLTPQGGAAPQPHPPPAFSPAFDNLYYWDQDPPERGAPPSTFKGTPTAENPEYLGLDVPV
Sequence of Beta-1 adrenergic receptor (P08588 whole entry): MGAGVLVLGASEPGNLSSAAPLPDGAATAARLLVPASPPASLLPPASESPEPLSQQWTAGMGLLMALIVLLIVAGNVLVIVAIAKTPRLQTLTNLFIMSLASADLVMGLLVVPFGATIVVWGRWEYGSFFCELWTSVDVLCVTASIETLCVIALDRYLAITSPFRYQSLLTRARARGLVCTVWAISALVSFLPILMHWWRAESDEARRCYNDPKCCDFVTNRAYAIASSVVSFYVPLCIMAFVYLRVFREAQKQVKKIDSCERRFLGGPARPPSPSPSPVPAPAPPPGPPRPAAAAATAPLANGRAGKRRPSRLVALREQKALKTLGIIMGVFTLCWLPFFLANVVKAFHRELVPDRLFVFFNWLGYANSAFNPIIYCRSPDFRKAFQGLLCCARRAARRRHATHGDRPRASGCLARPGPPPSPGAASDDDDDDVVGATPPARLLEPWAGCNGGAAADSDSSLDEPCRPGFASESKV
Sequence of Insulin receptor (P15127 27-759 limits assumed): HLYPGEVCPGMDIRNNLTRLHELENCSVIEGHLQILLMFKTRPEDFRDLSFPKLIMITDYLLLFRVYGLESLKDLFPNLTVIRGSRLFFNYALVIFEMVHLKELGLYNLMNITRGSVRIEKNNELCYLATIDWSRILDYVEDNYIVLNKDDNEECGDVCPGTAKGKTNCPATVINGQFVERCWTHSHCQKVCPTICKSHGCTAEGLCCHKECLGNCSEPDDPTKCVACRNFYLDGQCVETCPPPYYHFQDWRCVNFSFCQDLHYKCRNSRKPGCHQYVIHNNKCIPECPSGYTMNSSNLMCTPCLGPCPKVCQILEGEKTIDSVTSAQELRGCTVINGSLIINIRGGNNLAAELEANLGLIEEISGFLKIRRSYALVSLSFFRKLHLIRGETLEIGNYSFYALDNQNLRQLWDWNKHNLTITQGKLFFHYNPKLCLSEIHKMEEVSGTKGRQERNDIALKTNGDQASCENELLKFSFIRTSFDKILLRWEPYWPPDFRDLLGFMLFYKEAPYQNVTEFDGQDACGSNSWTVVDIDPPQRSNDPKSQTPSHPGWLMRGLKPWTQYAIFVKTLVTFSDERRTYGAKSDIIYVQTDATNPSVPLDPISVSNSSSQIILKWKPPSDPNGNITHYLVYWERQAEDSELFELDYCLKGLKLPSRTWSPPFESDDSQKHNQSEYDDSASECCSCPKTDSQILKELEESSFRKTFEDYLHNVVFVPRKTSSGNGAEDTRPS
Sequence of Insulin receptor (P15127 764-1383 limits assumed): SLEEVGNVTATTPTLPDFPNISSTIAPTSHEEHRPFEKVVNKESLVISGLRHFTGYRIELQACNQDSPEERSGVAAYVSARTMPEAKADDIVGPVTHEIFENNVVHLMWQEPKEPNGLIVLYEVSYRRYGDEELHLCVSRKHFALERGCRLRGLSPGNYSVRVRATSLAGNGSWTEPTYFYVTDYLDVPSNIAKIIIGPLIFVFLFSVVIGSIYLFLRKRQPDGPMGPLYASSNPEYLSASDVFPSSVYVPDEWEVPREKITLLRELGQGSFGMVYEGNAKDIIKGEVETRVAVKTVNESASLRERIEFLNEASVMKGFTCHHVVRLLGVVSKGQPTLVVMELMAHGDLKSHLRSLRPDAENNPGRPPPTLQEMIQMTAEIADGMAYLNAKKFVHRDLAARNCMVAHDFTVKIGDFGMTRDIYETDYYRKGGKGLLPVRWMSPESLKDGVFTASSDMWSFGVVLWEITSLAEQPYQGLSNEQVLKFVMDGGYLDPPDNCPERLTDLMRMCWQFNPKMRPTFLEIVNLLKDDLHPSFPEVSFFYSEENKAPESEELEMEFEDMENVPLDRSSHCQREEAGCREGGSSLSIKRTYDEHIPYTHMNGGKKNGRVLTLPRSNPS
Sequence of 5-hydroxytryptamine receptor 1B (P28564 whole entry): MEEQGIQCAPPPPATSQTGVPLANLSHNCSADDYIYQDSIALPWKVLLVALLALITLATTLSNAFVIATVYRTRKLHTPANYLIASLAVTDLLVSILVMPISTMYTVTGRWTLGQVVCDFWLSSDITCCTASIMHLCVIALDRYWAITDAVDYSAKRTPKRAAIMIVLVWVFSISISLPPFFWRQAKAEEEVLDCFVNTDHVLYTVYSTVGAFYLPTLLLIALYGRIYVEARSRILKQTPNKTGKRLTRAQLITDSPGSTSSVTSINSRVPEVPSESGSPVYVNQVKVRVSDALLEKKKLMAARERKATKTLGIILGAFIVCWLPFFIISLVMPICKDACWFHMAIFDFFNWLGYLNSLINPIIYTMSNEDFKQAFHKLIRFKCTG

Consider `CN1C[C@H](C(=O)N[C@]2(C)O[C@@]3(O)[C@@H]4CCCN4C(=O)[C@H](Cc4ccccc4)N3C2=O)C=C2c3cccc4[nH]cc(c34)C[C@H]21` [ERGOTAMINE], for which the IC50 in data set [1] (read-out: IC50) is 2.12 nM; in [2] (read-out: IC50), 12 nM; in [3] (read-out: IC50), 4140 nM; in [4] it was “Not Active”; in data set [5], “Not Active”; in data set [6], “Not Active”. The IC50 result is “Not Active” on Insulin receptor; “Not Active” in data set [7]; “Not Active” in data set [8]; 0.201 nM in data set [9] (read-out: IC50); “Not Active” on Adenosine receptor A1; “Not Active” in [10]. Also, the Ki was 0.796 nM in data set [1] (read-out: Ki); 1.81 nM in [2] (read-out: Ki); 2390 nM in [3] (read-out: Ki); “Not Active” in data set [5]; “Not Active” in [6]; 0.091 nM in data set [9] (read-out: Ki). Moreover, the Ki entry in data set [10] was “Not Active”.

`CCc1cccc2c3c([nH]c12)C(CC)(CC(=O)O)OCC3` (centres undefined) [ETODOLAC]: the IC50 result in data set [1] (sf9), in data set [2] (sf9), in data set [3] (cho-k1), in data set [4], in data set [5] and in data set [6] was “Not Active” each time. Also, the half-inhibitory concentration (IC50) result (against Insulin receptor; in data set [7]; in [8]; in [9]; at Adenosine receptor A1; in data set [10]) was “Not Active” in each case. For the same compound, the Ki result in data set [5], in data set [6] and in data set [10] was “Not Active” each time.

For the compound `Nc1nc(=O)[nH]cc1F` [FLUCYTOSINE], the IC50 entry in data set [1] (sf9), in [2] (sf9), in data set [3] (cho-k1), in data set [4], in data set [5] and in data set [6] was “Not Active” each time. Also, the IC50 result (against Insulin receptor; in data set [7]; in data set [8]; in data set [9]; on Adenosine receptor A1; in [10]) was “Not Active” each time. The Ki result in [5], in [6] and in data set [10] was “Not Active” in each case.

On to `O=C1OC2(c3ccc(O)cc3Oc3cc(O)ccc32)c2ccccc21` [FLUORESCEIN], for which the IC50 result in data set [1] (sf9), in data set [2] (sf9), in data set [3] (cho-k1), in data set [4], in data set [5] and in [6] was “Not Active” each time. Also, the IC50 entry (against Insulin receptor; in data set [7]; in data set [8]; in data set [9]; against Adenosine receptor A1; in [10]) was “Not Active” each time. The Ki result in [5], in data set [6] and in data set [10] was “Not Active” in each case.

For `CC(=O)[C@@]1(O)CC[C@H]2[C@@H]3C[C@H](C)C4=CC(=O)C=C[C@]4(C)[C@@]3(F)[C@@H](O)C[C@@]21C` [FLUOROMETHOLONE], the IC50 entry in data set [1] (sf9), in data set [2] (sf9), in [3] (cho-k1), in data set [4], in [5] and in [6] was “Not Active” each time. The IC50 entry (at Insulin receptor; in [7]; in data set [8]; in [9]; against Adenosine receptor A1; in data set [10]) was “Not Active” each time. Also, the Ki result in data set [5], in [6] and in [10] was “Not Active” each time.

With `O=c1[nH]cc(F)c(=O)[nH]1` [FLUOROURACIL], the half-maximal inhibitory concentration (IC50) result in data set [1] (sf9), in data set [2] (sf9), in [3] (cho-k1), in [4], in [5] and in data set [6] was “Not Active” each time. In addition, the half-inhibitory concentration (IC50) entry (on Insulin receptor; in data set [7]; in data set [8]; in [9]; against Adenosine receptor A1; in [10]) was “Not Active” in each case. In addition, the Ki result in [5], in [6] and in data set [10] was “Not Active” each time.

Regarding `CC(C)n1c(/C=C/C(O)CC(O)CC(=O)O)c(-c2ccc(F)cc2)c2ccccc21` (centres undefined) [FLUVASTATIN], the concentration for half-maximal inhibition (IC50) result in [1] (sf9), in data set [2] (sf9), in data set [3] (cho-k1), in data set [4], in [5] and in data set [6] was “Not Active” each time. For the same compound, the IC50 result (on Insulin receptor; in data set [7]; in [8]; in data set [9]; against Adenosine receptor A1; in [10]) was “Not Active” throughout. Moreover, the inhibition constant (Ki) result in data set [5], in [6] and in data set [10] was “Not Active” throughout.
